Test results: US20240252454A1, “COMPOSITION COMPRISING AN INHIBITOR OF MITOCHONDRIAL TRANSCRIPTION” (LEAD DISCOVERY CENTER GMBH, priority 2021, published 2024)

How the values were obtained:
Format in all cases: cell-based
HEC59 [1] = experiment: CellTiter-GLO (CTG) assay, combinatorial matrix; conditions: 30 μM to 15 nM IMT + 30 μM to 40 nM BAY-876
A2780 [2] = experiment: SRB assay, IMT combined with inhibitor; conditions: A2780; dilution series of the IMT + MEK inhibitor Selumetinib (AZD6244) at constant 1 μM or 31 nM; compared to untreated or MEK inhibitor only (FIG. 1)
Procedure: In two studies, the ovarian cell line A2780 was tested for 72 hours with the IMT N,N-dimethyl-2-[4-(o-tolyl)-2-oxo-chromen-7-yl]oxy-propanamide (30 μM-15 nM) and the MEK inhibitor Selumetinib (30 μM-10 nM), or with the IMT 1-[2-[4-(2-chlorophenyl)-2-oxo-chromen-7-yl]oxypropanoyl]piperidine-3-sulfonamide (30 μM-15 nM) and the MEK inhibitor PD318088 (30 μM-10 nM).
Solforhodamine B assay is carried out as described in Voigt W. (2005) Sulforhodamine B Assay and Chemosensitivity. (Methods in Molecular Medicine™, vol 110. Humana Press. https://doi.org/10.1385/1-59259-869-2:039).
The determination of changes in cellular biomass was based on the Solforhodamine B assay format, carried out as described in Voigt W. (2005) Sulforhodamine B Assay and Chemosensitivity. (Methods in Molecular Medicine™, vol 110. Humana Press. https://doi.org/10.1385/1-59259-869-2:039).
(§1) All in vitro cell culture experiments were carried out under near physiological glucose concentrations (5 mM) in at least two independent replicates.
First, 30 different cell lines from 14 different tissue types were tested in the SRB assay format. The cells were examined individually for changes in growth over a period of 120 hours with dilution series of both inhibitors. Untreated cells were used as a negative control group. Subsequently, a dilution series of the respective MAPK signalling pathway SOCs was treated in combination with a fixed concentration of 40 nM (3S)-1-[(2R)-2-[4-(2-chloro-4-fluoro-phenyl)-2-oxo-chromen-7-yl]oxypropanoyl]piperidine-3-carboxylic acid.

A2780 [3] = experiment: CellTiter-GLO (CTG) assay, combinatorial matrix; conditions: for Measured residual activity (cellular ATP content): A2780, 72 hours, untreated control =100%
Procedure: (§2) To determine the in vitro cellular viability, cellular ATP concentrations were measured using a luminescence-based homogenous assay format, as described here. […] Optimal cell density for each cell line was determined to guarantee linearity. For viability assays with compounds, cells were then seeded at a density of 200 to 1000 per well in 25 μl in 384-well plates (Greiner Bio-One, Frickenhausen, Germany). After overnight incubation at 37° C./5% CO2, 25 nl or 75 nl compounds were added to each sample well by using BIOMEK FXP Laboratory Automation Workstation (Beckman Coulter, USA). Wells with cells and 0.1% or 0.3% DMSO in culture medium were used as positive controls, wells with cells and 10 μM staurosporine (Selleck Chemicals, Huston, USA) in culture medium were used as negative controls. Upon incubation with compounds for 72 h at 37° C./5% CO2 25 μl Cell Titer Glo reagent (Promega, Madison, USA, European Pat. No. 1131441, U.S. Pat. Nos. 7,083,911, 7,452,663 and 7,732,128) 1:2 diluted with cell culture medium) was added to each well to determine cell viability. 384well-plates were placed for 2 min on an orbital microplate shaker and incubated for further 10 min at room temperature resulting in a stabilization of light signal. Luminescence was measured by Envision Plate Reader (Perkin Elmer, USA).
as §1

[4] = system: primary human blood cells (PBMC); experiment: CellTiter-GLO (CTG) assay, combinatorial matrix; conditions: hPBMCs, 72 hours, BAY-876 0 (IMT alone), IMT at the μM of c0, untreated control =100%
Procedure: as §2, §1
(§3) To establish the method described, N,N-dimethyl-2-[4-(o-tolyl)-2-oxo-chromen-7-yl]oxy-propanamide, (3S)-1-[2-[4-(2-chloro-4-fluoro-phenyl)-2-oxo-chromen-7-yl]oxypropanoyl]piperidine-3-carboxylic acid, (3S)-1-[(2R)-2-[4-(2-chloro-4-fluoro-phenyl)-2-oxo-chromen-7-yl]oxypropanoyl]piperidine-3-carboxylic acid and BAY-876 were first examined with regard to their effect on the cell growth of twelve different tumour cell lines and the IC50 values were determined. This initial study was followed by validation experiments in a matrix format and in the CTG assay, as described under Example 1), in two tumour cell lines from uterine and ovarian carcinoma (HEC59 and A2780), as well as in primary human blood cells (PBMC) (Table 7).
(§4) Combinations of one concentration of IMT (μM; y-axis) and 30 μM-33 nM BAY-876 (x-axis) were incubated for 72 hours with HEC59, hPBMCs or A2780 and then the cellular ATP-content was determined using the CellTiter-GLO assay format. A: Measured residual activity (%) based on an untreated control group (=100%). B: The combinatorial indices are provided, based on the reference groups treated with the corresponding concentration of only one inhibitor class, according to Berenbaum and Cou & Talalay. <1=synergism, 1-2=additivity, 2>=antagonism.

HEC59 [5] = experiment: CellTiter-GLO (CTG) assay, combinatorial matrix; conditions: HEC59, 72 hours, BAY-876 0 (IMT alone), IMT at the μM of c0, untreated control =100%
Procedure: as §2, §1, §3, §4

Structure (SMILES) | combination of IMT and GLUTi compared to treatment with only the GLUTi BAY-876 alone (HEC59 [1]) | growth kinetics in the SRB assay format (A2780 [2]) | combination of IMT and GLUTi compared to treatment with only the GLUTi BAY-876 alone (A2780 [3]; A2780, CTG matrix, 30 μM to 15 nM IMT + 30 μM to 40 nM BAY-876) | Measured residual activity (cellular ATP content) ([4]; IMT 0.059 µM) [%] | Measured residual activity (cellular ATP content) ([4]; IMT 0.234 µM) [%] | Measured residual activity (cellular ATP content) (HEC59 [5]; IMT 0.005 µM) [%] | Measured residual activity (cellular ATP content) (HEC59 [5]; IMT 1.25 µM) [%] | Measured residual activity (cellular ATP content) (A2780 [3]; BAY-876 0 (IMT alone), IMT at the μM of c0, IMT 0.12 µM) [%] | Measured residual activity (cellular ATP content) (A2780 [3]; BAY-876 0 (IMT alone), IMT at the μM of c0, IMT 0.47 µM) [%] | Measured residual activity (cellular ATP content) (A2780 [3]; BAY-876 0 (IMT alone), IMT at the μM of c0, IMT 1.88 µM) [%] | Measured residual activity (cellular ATP content) (A2780 [3]; Olaparib 0 (IMT alone), IMT (3S)-1-[(2R)-2-[4-(2-chloro-4-fluoro-phenyl)-2-oxo-chromen-7-yl]oxypropanoyl]piperidine-3-carboxylic acid at the μM of c0) [%] | Measured residual activity (cellular ATP content) (A2780 [3]; Rucaparib 0 (IMT alone), IMT (3S)-1-[(2R)-2-[4-(2-chloro-4-fluoro-phenyl)-2-oxo-chromen-7-yl]oxypropanoyl]piperidine-3-carboxylic acid at the μM of c0) [%] | Measured residual activity (cellular ATP content) (A2780 [3]; Veliparib 0 (IMT alone), IMT (3S)-1-[(2R)-2-[4-(2-chloro-4-fluoro-phenyl)-2-oxo-chromen-7-yl]oxypropanoyl]piperidine-3-carboxylic acid at the μM of c0, IMT 0.2 µM) [%] | Measured residual activity (cellular ATP content) (A2780 [3]; Veliparib 0 (IMT alone), IMT (3S)-1-[(2R)-2-[4-(2-chloro-4-fluoro-phenyl)-2-oxo-chromen-7-yl]oxypropanoyl]piperidine-3-carboxylic acid at the μM of c0, IMT 7.5 µM) [%]
CC(Oc1ccc2c(-c3ccc(F)cc3Cl)cc(=O)oc2c1)C(=O)N1CCC[C@H](C(=O)O)C1 (stereo partly drawn) [(3S)-1-[2-[4-(2-chloro-4-fluoro-phenyl)-2-oxo-chromen-7-yl]oxypropanoyl]piperidine-3-carboxylic acid] | advantage of the combination | advantage of the combination treatment | advantage of the combination |  |  |  |  |  |  |  |  |  |  | 
C[C@@H](Oc1ccc2c(-c3ccc(F)cc3Cl)cc(=O)oc2c1)C(=O)N1CCC[C@H](C(=O)O)C1 [IMT] |  |  |  | 98 | 94 | 99 | 39 | 35 | 32 | 29 | 30 | 25 | 29 | 31
